This is an account of results in paper PMC5693986, “Atomic resolution snapshot of Leishmania ribosome inhibition by the aminoglycoside paromomycin” (Nature Communications, 2017).

Assay [1] concerns leishmanial cytosolic ribosome. The assay can be described thus: In vitro inhibition of translation in L. tarentolae lysates (cell-free transcription-translation, EGFP reporter). The format is biochemical. Conditions: for IC50: L. tarentolae lysates, mean ± SE of at least three independent repeats, read-out: Inhibition of translation—IC50, Leishmania. The text has this:
(§1) In order to assess cytosolic ribosome susceptibility and selectivity to putative anti-leishmanial compounds, we performed three different cell-free transcription-translation assays in S30 extracts of E. coli (Promega), rabbit reticulocytes (Promega) and L. tarentolae (Jena Bioscience). […] The ribosomes derived from this species are highly similar to L. donovani ribosomes. Three plasmids, compatible with each extract system, were used in this study: pBESTlucTM (Promega) for the prokaryotic translation assay, Luciferase T7 DNA (Promega) for the reticulocytes and pLEXSY-invitro2-EGFP (Jena Bioscience) for Leishmania. Firefly luciferase was used as a reporter gene for the bacterial and reticulocyte systems and EGFP for Leishmania. […] Assays were performed in white polystyrene 96-well flat bottom plates (Nunc) for the luciferase and black polystyrene 384-well flat-bottom plates (Greiner) for the EGFP. Incubation times were 60 min at 37 °C, 90 min at 30 °C and 120 min at 26 °C for the bacterial, reticulocyte and Leishmania systems, respectively. Reactions were stopped by quick snap cooling followed by a 5-min incubation on ice. Luciferase activity was measured for each well following the addition of 50 μl Luciferase Assay reagent (Promega) by recording the chemi-luminescence signal on […] (Tecan). EGFP fluorescence (λ ex = 488 nm; λ em = 507 nm) was recorded on Tecan Infinite R®F200 microplate reader (Tecan). Extracts lacking the circular DNA template were used as negative control to calculate the fluorescence/chemi-luminescence background. Reaction mixtures without compound presence were used as positive control and were regarded as 100% translation. At least six different concentrations were used to plot each translation inhibition curve, experiments were performed in three independent repeats in duplicates. Half-maximal inhibition concentration (IC50) values were calculated from the concentration–response fitting curves of using GraFit7 software.

In assay [2] the test system is bacterial translation (E. coli S30 extract). The assay can be described thus: In vitro inhibition of translation in E. coli S30 extracts (luciferase reporter). The format is biochemical. The settings on record: mean ± SE of at least three independent repeats, read-out: Inhibition of translation—IC50, Bacteria.
Source text: as §1
(In general: Reporter assays use an easily measured gene product as a stand-in for the process of interest.)

Assay [3] deals with rabbit reticulocyte lysate translation. The assay can be described thus: In vitro inhibition of translation in rabbit reticulocyte lysates (luciferase reporter). The assay is classed as biochemical. Conditions: mean ± SE of at least three independent repeats, read-out: Inhibition of translation—IC50, Reticulocytes.
Source text: as §1

In assay [4] the test system is leishmanial decoding (UGA stop codon read-through). The assay can be described thus: In vitro assessment of misreading (dual-luciferase UGA stop codon read-through) in L. tarentolae lysates. The assay is classed as biochemical. The settings on record: for Misreading activity (UGA stop codon read-through) at IC50 levels: at the compound's IC50 concentration, L. tarentolae lysates. The text has this: To examine AG modes of action in Leishmania, we designed a dual-reporter assay whereby an in-frame linker containing a UGA stop mutation was introduced in between two genes encoding Renilla and Firefly luciferases cloned into an in vitro Leishmania expression system. A similar system was previously used to assess stop codon read-through events in bacteria as well as other eukaryotes, and as these levels seemed to correspond to tRNA misreading levels it has also been previously used to evaluate infidelity of translation[38],[39].
The content of a p2luc dual-luciferase derived from an SV-40 vector with either wild type or an in-frame TGA stop codon poly-linker was cloned into pLEXSY-invitro2 that is compatible with Leishmania in vitro translation (Jena Bioscience). SV-40 constructs were a generous gift by Professor Timor Baasov. Cloning has been performed by restriction-free (RF) PCR methodology as previously described by Unger et al.[40].
5′-[…]-3′ and 5′-[…]-3′ were used as forward and reverse primers, respectively. Primers were produced by custom design (Sigma). The in vitro misreading assays were performed in L. tarentolae lysates and were designed similarly to the inhibition of translation assay reported herein. The main modifications were that the final reaction volume was adjusted to 20 μl and that the assay has been performed in white polystyrene 96-well flatbottom plates (Nunc). Luciferase activity was determined after 120 min incubation at 26 °C, using the Dual luciferase reporter assay system (Promega) and was performed according to the manufacturer’s instructions.

For assay [5], the system named is bacterial translation (E. coli S30 extract). Further details: method as in PMID 26264664. Conditions: mean ± SE, read-out: Inhibition of translation—IC50, Bacteria; cited from earlier work.
Assay [6] has as its system rabbit reticulocyte lysate translation. Further details: method as in PMID 26264664. Conditions: rabbit reticulocyte lysates; mean ± SE; read-out: Inhibition of translation—IC50, Reticulocytes; cited from earlier work.

Structures are written as SMILES. Several values for one entry are separate records, joined by “and”; a condition that tells them apart may be missing. Equal values may be shown once. Read-outs that look alike come from different tables or passages of the source.

As a reminder, the IC50 is the point on the concentration scale where inhibition reaches its midpoint. Regarding `NC[C@@H]1O[C@H](O[C@H]2[C@@H](O)[C@H](O[C@@H]3[C@@H](O)[C@H](N)C[C@H](N)[C@H]3O[C@H]3O[C@H](CN)[C@@H](O)[C@H](O)[C@H]3N)O[C@@H]2CO)[C@H](N)[C@@H](O)[C@@H]1O` [NEO, neomycin B], the IC50 in assay [1] turned out to be 82.4 µM; in assay [2] it was 0.011 ± 0.001 µM; in assay [3] it was 28 ± 5 µM.

On to `CNC(C)C1CCC(N)C(OC2C(N)CC(N)C(OC3OCC(C)(O)C(NC)C3O)C2O)O1` (stereo not shown) [GEN, gentamicin], for which the figures for the IC50 in assay [1], in assay [2] and in assay [3] were 18.4 µM, 0.028 ± 0.004 µM and 62 ± 9 µM, respectively.

In the case of `CN[C@@H]1[C@@H](O[C@H]2O[C@H](CO)[C@@H](N)[C@H](O)[C@H]2O)OC2C[C@@H](N)[C@@H](O[C@H]3[C@H](O)[C@@H](O)[C@H](N)C[C@@H]3N)OC2[C@@H]1O` (stereo partly shown) [APR, apramycin], the IC50 in assay [1] is 201 ± 16.1 µM; in assay [2], 0.049 ± 0.003 µM; in assay [3], 29 ± 6 µM. In addition, the “Reduced activity in Leishmania compared to bacteria (inhibition of translation)” value in assay [1] (Leishmania versus bacterial ribosome, from Table 1) is on record as 4 orders of magnitude. In assay [4], the “Misreading activity (UGA stop codon read-through) at IC50 levels” value is listed as 5%.

For the compound `NC[C@@H]1O[C@H](O[C@H]2[C@@H](O)[C@H](O[C@@H]3[C@@H](O)[C@H](N)C[C@H](N)[C@H]3O[C@H]3O[C@H](CO)[C@@H](O)[C@H](O)[C@H]3N)O[C@@H]2CO)[C@H](N)[C@@H](O)[C@@H]1O` [PAR, paromomycin], the IC50 was 3.62 ± 0.176 µM in assay [1], 0.051 ± 0.005 µM in assay [5] and 57 ± 4 µM in assay [6]. Further, the “Misreading activity (UGA stop codon read-through) at IC50 levels” value in assay [4] is recorded as 26%.

Consider `CNC1CC(N)C(O)C(OC2OC(CO)C(O)C3OC4(OC(C(N)CO)C(O)C(O)C4O)OC23)C1O` (stereo not shown) [HYG, hygromycin B], for which the IC50 was 0.065 µM and 0.0647 µM in assay [1]; 0.011 ± 0.002 µM in assay [2]; 0.8 ± 0.1 µM in assay [3]. In addition, in assay [4] (at concentrations corresponding to its IC50 value), the “Misreading of the genetic code (result in words)” value was “does not induce misreading”.

On to `CN[C@@H]1[C@@H](O)[C@@H](O[C@@H]2[C@@H](O)[C@H](O[C@H]3O[C@H]([C@@H](C)O)[C@@H](O)[C@H](O)[C@H]3N)[C@@H](N)C[C@H]2N)OC[C@]1(C)O` [G418, geneticin], for which the IC50 is 0.15 µM and 0.153 µM in assay [1]; 0.009 ± 0.0015 µM in assay [5]; 2 ± 0.3 µM in assay [6].
